Patent US20090011400A1, “Substrate switched ammonia lyases and mutases” (The Salk Institute for Biological Studies and The Regents …, priority 2006, published 2009)
Substitutions are numbered along the chain they refer to. Numbers in names are those of the source. Each block holds one molecule with its values, some of them ahead of it.

Columns and labels:
[1] = system: SmPAL (Streptomyces maritimus phenylalanine ammonia lyase); details: cited from earlier work
[2] = system: ZmPAL (Z. mays phenylalanine ammonia lyase); details: cited from earlier work
[3] = system: PcPAL (Petroselinum crispum phenylalanine ammonia lyase); details: cited from earlier work
[4] = system: RcTAL (Rhodobacter capsulatus tyrosine ammonia lyase); details: cited from earlier work
[5] = system: SeTAL (Saccharothrix espanaensis tyrosine ammonia lyase); details: cited from earlier work
[6] = molecular target: T1, Rhodobacter sphaeroides tyrosine ammonia lyase (RsTAL) variant H89F (His89Phe) (Cereibacter sphaeroides, UniProt Q3IWB0, H89F); test: Ammonia lyase steady-state kinetics, H89F RsTAL
T1 sequence (Q3IWB0 1-523 H89F): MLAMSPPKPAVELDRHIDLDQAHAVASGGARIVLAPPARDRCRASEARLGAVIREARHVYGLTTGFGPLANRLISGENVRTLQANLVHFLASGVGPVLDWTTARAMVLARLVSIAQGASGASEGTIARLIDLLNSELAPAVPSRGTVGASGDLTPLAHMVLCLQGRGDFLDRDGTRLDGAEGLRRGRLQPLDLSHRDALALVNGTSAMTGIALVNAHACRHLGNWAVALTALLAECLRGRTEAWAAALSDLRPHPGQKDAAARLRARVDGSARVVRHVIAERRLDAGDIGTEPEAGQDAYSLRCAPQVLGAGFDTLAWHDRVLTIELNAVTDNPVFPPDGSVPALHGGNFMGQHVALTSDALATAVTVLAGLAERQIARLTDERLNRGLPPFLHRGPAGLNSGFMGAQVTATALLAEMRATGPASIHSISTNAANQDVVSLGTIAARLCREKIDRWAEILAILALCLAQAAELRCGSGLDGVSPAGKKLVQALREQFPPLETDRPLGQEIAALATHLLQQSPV
Experimental: (§3) TAL activity was measured spectrophotometrically by monitoring the formation of a conjugated aryl-acid product. The conversion of L-Tyr to p-coumarate was followed at 310 nm and L-Phe to cinnamate at 280 nm. The assay mixture (total volume 0.5 ml) contained 0.1 M Tris HCl (pH 8.5), and for each fixed amount of TAL, eight different initial concentrations of amino acid substrate. After pre-incubation of the enzyme at 37° C. for 2 min, reactions were initiated by the addition of substrate, and formation of product was monitored for 5 min. […] For the RsTAL H89F mutant, PAL activity was assayed with 10 μg protein and initial L-Phe concentrations between 0.05 and 5.2 mM. Each series of assays were performed in triplicate, and a Hanes plot was used for the estimation of steady-state kinetic constants.

[7] = system: PlPAL (Photorhabdus luminescens phenylalanine ammonia lyase); details: cited from earlier work
[8] = molecular target: T2, Rhodobacter sphaeroides tyrosine ammonia lyase (RsTAL), wild type (Cereibacter sphaeroides, UniProt Q3IWB0); test: Ammonia lyase steady-state kinetics, wild type RsTAL; assay type: biochemical; details: wt RsTAL
T2 construct: octahistidine (His8), thrombin-cleavable (N, cleaved yes); made in house; host or cells: E. coli BL21(DE3)
T2 sequence (Q3IWB0 1-523): T1 sequence (Q3IWB0 1-523 H89F) with F89H
Experimental: (§1) TAL activity was measured spectrophotometrically by monitoring the formation of a conjugated aryl-acid product. The conversion of L-Tyr to p-coumarate was followed at 310 nm and L-Phe to cinnamate at 280 nm. The assay mixture (total volume 0.5 ml) contained 0.1 M Tris HCl (pH 8.5), and for each fixed amount of TAL, eight different initial concentrations of amino acid substrate. After pre-incubation of the enzyme at 37° C. for 2 min, reactions were initiated by the addition of substrate, and formation of product was monitored for 5 min. For wild type RsTAL, activity was assayed with 7.5 μg protein and initial L-Tyr concentrations between 0.01 and 2.4 mM, and PAL activity was assayed with 30 μg protein and initial L-Phe concentrations between 3.2 and 51.2 mM. For the RsTAL H89F mutant, PAL activity was assayed with 10 μg protein and initial L-Phe concentrations between 0.05 and 5.2 mM. Each series of assays were performed in triplicate, and a Hanes plot was used for the estimation of steady-state kinetic constants.

[9] = molecular target: T1, Rhodobacter sphaeroides tyrosine ammonia lyase (RsTAL) variant H89F (His89Phe); test: Inhibition of PAL activity of H89F RsTAL by AIP; assay type: biochemical; parameters: mutant proteins were expressed and purified as described for wild type RsTAL; octahistidine (His8), thrombin-cleavable (N, cleaved yes); made in house; host or cells: E. coli BL21(DE3)
Experimental: (§2) The inhibition of enzyme activity by AIP was measured with a similar assay system, except that the enzyme was pre-incubated for 7 min in the presence of fixed concentrations of AIP. Inhibition of PAL activity of wild type RsTAL was measured with 15 μg protein, six AIP concentrations between 0 and 20 μM, and initial L-Phe concentrations between 9.6 and 25.6 mM. Inhibition of PAL activity of the H89F mutant was measured with 10 μg protein, five AIP concentrations between 0 and 5 μM, with initial L-Phe concentrations between 0.4 and 1.6 mM. Duplicate sets of enzyme assays were performed and a Dixon plot was used for the estimation of the AIP inhibition constant, Ki. AIP was a gift from Dr. Jerzy Zon, Wroclaw University, Poland.

[10] = molecular target: T3, H89F RsTAL (Cereibacter sphaeroides, UniProt Q3IWB0, H89F); test: Inhibition of PAL activity by AIP, H89F RsTAL; assay type: biochemical, Rhodobacter sphaeroides
T3 construct: mutant proteins were expressed and purified as described for wild type RsTAL; His8 (octahistidine), thrombin-cleavable (N, cleaved yes); made in house; host or cells: E. coli BL21(DE3)
T3 sequence (Q3IWB0 1-523 H89F): T1 sequence (Q3IWB0 1-523 H89F)
Experimental: as §2

[11] = molecular target: SmPAL; details: substrate L-Phe, read-out: AIP Ki; cited from earlier work
[12] = molecular target: T4, wild type RsTAL (Cereibacter sphaeroides, UniProt Q3IWB0); test: Inhibition of enzyme activity by AIP, wild type RsTAL; assay type: biochemical, Rhodobacter sphaeroides
T4 construct: only residues 1 to 7 and the C-terminal residue 523 of each of the eight RsTAL monomers are poorly ordered; His8 (octahistidine), thrombin-cleavable (N, cleaved yes); made in house; host or cells: E. coli BL21(DE3)
T4 sequence (Q3IWB0 1-523): T1 sequence (Q3IWB0 1-523 H89F) with F89H
Experimental: as §2

[13] = molecular target: PcPAL (Petroselinum crispum, UniProt P24481); details: substrate L-Phe, read-out: AIP Ki; cited from earlier work
[14] = molecular target: T5, RsTAL (Cereibacter sphaeroides, UniProt Q3IWB0); test: Crystal soaking experiments of RsTAL with ligands; assay type: binding, Rhodobacter sphaeroides; details: wild type RsTAL crystals soaked with ligand
T5 construct: His8 (octahistidine), thrombin-cleavable (N, cleaved yes); made in house; host or cells: E. coli BL21(DE3)
T5 sequence (Q3IWB0 1-523): T1 sequence (Q3IWB0 1-523 H89F) with F89H
Experimental: Monoclinic crystals of RsTAL (space group […]) were grown from a 1:1 mixture of protein solution (20 mg/ml in 12.5 mM Tris-HCl, pH 7.5, 50 mM NaCl) and a reservoir solution (0.1 M MOPSO—Na^+, pH 7.0, 7% (w/v) polyethylene glycol 8000, 0.3 M ammonium acetate, 2 mM dithiothreitol, 35 mM cyclohexylbutanoyl-N-hydroxyethylglucamide) using vapor diffusion against reservoir solutions at 4° C. Crystal growth typically occurred over a period of one to three weeks and was expedited through microseeding. […] Crystals of RsTAL in complex with small molecule ligands were produced by soaking crystals for 24-48 hrs in reservoir solutions supplemented with 10-20 mM coumaric acid, caffeic acid, cinnamic acid or AIP.

[15] = substrate: N[C@@H](Cc1ccccc1)C(=O)O; test: purified protein, by the assay type; details: other: H89F RsTAL, pH 8.5, 37° C.
Experimental: as §3

[16] = PAL activity: spectrophotometric steady-state kinetics, L-Phe to cinnamate; assay type: biochemical; details: substrate L-Phe
Experimental: as §1

[17] = substrate: N[C@@H](Cc1ccccc1)C(=O)O; test: Ammonia lyase steady-state kinetics, wild type RsTAL; assay type: biochemical, Rhodobacter sphaeroides; details: other: wt RsTAL, pH 8.5, 37° C.
Experimental: as §1

[18] = substrate: N[C@@H](Cc1ccc(O)cc1)C(=O)O; test: as above; assay type: biochemical, Rhodobacter sphaeroides; details: other: wt RsTAL, pH 8.5, 37° C.
Experimental: as §1

Molecule: N[C@@H](Cc1ccccc1)C(=O)O [L-Phe]
Km [1]: 23 µM
kcat [1]: 0.0048 s⁻¹
Km [2]: 270 µM
kcat [2]: 10 s⁻¹
Km [3]: 17.2 µM
kcat [3]: 22 s⁻¹
Km [4]: 1280 µM
kcat [4]: 15.1 s⁻¹
Km [5]: 2860 µM
kcat [5]: 0.0038 s⁻¹
kcat ([6]; pH 8.5, 37° C.): 8.15 s⁻¹
Km [7]: 320 µM
kcat [7]: 0.8 s⁻¹

activity with L-DOPA ([8]; deamination): significant activity
Molecule: N[C@@H](Cc1ccc(O)c(O)c1)C(=O)O [L-DOPA, L-3,4-dihydroxyphenylalanine]

Molecule: N[C@@H](Cc1ccc(O)cc1)C(=O)O [L-Tyr]
Km better for L-Tyr as compared to L-Phe ([8]; L-Tyr vs L-Phe): 150 fold
kcat ([8]; pH 8.5, 37° C.): 4.32 s⁻¹
Km [2]: 19 µM
kcat [2]: 0.9 s⁻¹
Km [3]: 2500 µM
kcat [3]: 0.3 s⁻¹
Km [4]: 15.6 µM
kcat [4]: 27.7 s⁻¹
Km [5]: 15.5 µM
kcat [5]: 0.015 s⁻¹
activity with L-Tyr [6]: lacks activity

Molecule: NC1(P(=O)(O)O)Cc2ccccc2C1 [AIP, 2-aminoindan-2-phosphonate]
Ki [9]: 600 nM
Ki ([10]; H89F RsTAL, substrate L-Phe, Dixon plot): 600 nM
Ki lower than for wild type RsTAL ([10]; H89F mutant with L-Phe versus wild type RsTAL): 27 fold
Ki [11]: 1810 nM
inhibition of RsTAL activity by AIP (in words) ([12]; wild type RsTAL): weak inhibition
effect of AIP on activity with L-Tyr (in words) ([12]; wild type RsTAL, substrate L-Tyr): unaffected
Ki ([12]; wt RsTAL, substrate L-Phe, Dixon plot): 16300 nM
Ki [13]: 25 nM
binding observed in RsTAL crystals (in words) [14]: no significant binding

Molecule: O=C(O)C=Cc1ccccc1 [cinnamic acid]
binding observed in RsTAL crystals (in words) [14]: no significant binding

B1: Rhodobacter sphaeroides tyrosine ammonia lyase (RsTAL) variant H89F (His89Phe) (Cereibacter sphaeroides 2.4.1; H89F) (protein)
chain: T1 sequence (Q3IWB0 1-523 H89F)
Km [15]: 434 µM

B2: H89F RsTAL: engineered RsTAL variant with the single amino acid substitution H89F (His 89 replaced by Phe) (protein)
chain: T1 sequence (Q3IWB0 1-523 H89F)
modifications: H89F mutant of Rhodobacter sphaeroides tyrosine ammonia lyase
increase in kcat/Km in comparison to wild type RsTAL [16]: 17 fold

B3: Rhodobacter sphaeroides tyrosine ammonia lyase (RsTAL), wild type (Cereibacter sphaeroides 2.4.1) (protein)
chain: T1 sequence (Q3IWB0 1-523 H89F) with F89H
notes: octahistidine (His8), thrombin-cleavable (N, cleaved yes); made in house; host or cells: E. coli BL21(DE3)
Km [17]: 11400 µM
kcat [17]: 13.1 s⁻¹
kcat/Km [17]: 1100 M⁻¹ s⁻¹
Km [18]: 74.2 µM
